Patent US9012433B2, “Substituted tetracycline compounds” (Paratek Pharmaceuticals, Inc., priority 2006, dated 2015)
In brackets after ≈: the same amount, converted by molar mass.

What was measured:
Assay type in all cases: cell-based
P. acnes ATCC 11827 = assay: Antibacterial MIC, CLSI broth microdilution; settings: Cutibacterium acnes, ATCC11827; 35° C., 18-24 hours
Protocol: (§1) Grain (−) and gram (+) antibacterial minimum inhibitory concentration (MIC) values (μg/mL) were obtained using CLSI methodology for anti-bacterial susceptibility testing. On each day of testing, serial dilutions of compounds were prepared in microdilution plates using a Tecan robotic workstation. Mueller Hinton broth cultures of representative sensitive and resistant gram negative strains were grown or adjusted to match the turbidity of a 0.5 McFarland standard. 1:200 dilutions were made in an appropriate broth (cation supplemented Mueller Hinton broth) to allow a final inoculum of 1×10^5 cfu. Plates were incubated at 35° C. in ambient air for 18-24 hours, were read spectrophotometrically and checked manually for evidence of bacterial growth. The lowest dilution of compound that inhibited growth was recorded as the MIC. Lysed horse blood was used to supplement broth for testing S. pneumoniae. The MIC's for each compound were assessed against S. aureus, S. pneumoniae, P. acnes, E. coli and B. theta.

E. coli MG 1655 = assay: Antibacterial MIC, CLSI broth microdilution; settings: Escherichia coli, MG1655; 35° C., 18-24 hours
Protocol: as §1

S. aureus RN450 = assay: Antibacterial MIC, CLSI broth microdilution; settings: Staphylococcus aureus, RN450; 35° C., 18-24 hours
Protocol: as §1

E. coli ATCC 25922 = assay: Antibacterial MIC, CLSI broth microdilution; settings: Escherichia coli, ATCC25922; 35° C., 18-24 hours
Protocol: as §1

[1] = tested on: B. thetaiotaomicron ATCC 29741; assay: Antibacterial MIC, CLSI broth microdilution; settings: Bacteroides thetaiotaomicron, ATCC29741; 35° C., 18-24 hours; read-out: MIC B. thetaiotaomicron ATCC 29741
Protocol: as §1

P. acnes ATCC 6919 = assay: Antibacterial MIC, CLSI broth microdilution; settings: Cutibacterium acnes, ATCC6919; 35° C., 18-24 hours
Protocol: as §1

[2] = tested on: S. pneumoniae 157E - Strep; assay: Antibacterial MIC, CLSI broth microdilution; settings: Streptococcus pneumoniae, 157ESTREP; 35° C., 18-24 hours; lysed horse blood
Protocol: as §1

in vitro = assay: in vitro
Protocol: Mammalian cell cytotoxicity was assessed to evaluate potential in vivo risks associated with the tetracycline compounds of the invention. A soluble, non-toxic redox dye (“Resazurin”; Alamar Blue) was used to assess a tetracycline compound's effect on cellular metabolism. At the onset of the experiment, cultures of mammalian COS-1 or CHO cells were washed, trypsinized, and harvested. […] On the next day, serial dilutions of test drug were prepared under sterile conditions and transferred to cell plates. Plates were then incubated under the above conditions for 24 hours. Following the incubation period, the media/drug was aspirated, and 50 μL of resazurin was added. Plates were then incubated under the above conditions for 2 hours and then in the dark at room temperature for an additional 30 minutes. Fluorescence measurements were taken (excitation 535 nm, emission 590 nm) and toxic effects in treated versus control cells were compared based on the degree of fluorescence in each well.

Compound	MIC (P. acnes ATCC 11827) [µg/mL]	MIC (E. coli MG 1655) [µg/mL]	MIC (S. aureus RN450) [µg/mL]	MIC (E. coli ATCC 25922) [µg/mL]	MIC [1] [µg/mL]	MIC (P. acnes ATCC 6919) [µg/mL]	MIC [2] [µg/mL]	IC50 at 24 h (in vitro; African green monkey) [µg/mL]	IC50 at 24 h (in vitro; Chinese hamster) [µg/mL]
CN(C)[C@@H]1C(O)=C(C(N)=O)C(=O)[C@@]2(O)C(O)=C3C(=O)c4c(O)ccc(CNOC(C)(C)C)c4C[C@H]3C[C@@H]12 [AB]	< 4	> 8	< 4	4 to 8 (≈ 7.76 to 15.5 µM)	4 to 8 (≈ 7.76 to 15.5 µM)	< 4	< 4	< 35	< 35
CN(C)[C@@H]1C(O)=C(C(N)=O)C(=O)[C@@]2(O)C(O)=C3C(=O)c4c(O)ccc(/C=N/n5cccc5)c4C[C@H]3C[C@@H]12 [AC, (4S,4aS,5aR,12aS)-4-Dimethylamino-3,10,12,12a-tetrahydroxy-1,11-dioxo-7-(pyrrol-1-yliminomethyl)-1,4,4a,5,5a,6,11,12a-octahydro-naphthacene-2-carboxylic acid amide]	< 4	> 8	< 4	4 to 8 (≈ 7.9 to 15.8 µM)	4 to 8 (≈ 7.9 to 15.8 µM)	< 4	< 4	< 35	< 35
CCON(C)Cc1ccc(O)c2c1C[C@H]1C[C@H]3[C@H](N(C)C)C(O)=C(C(N)=O)C(=O)[C@@]3(O)C(O)=C1C2=O [AE]	< 4	> 8	< 4	4 to 8 (≈ 7.98 to 16 µM)	4 to 8 (≈ 7.98 to 16 µM)	< 4	< 4	> 75	< 35
CCO/N=C(\C)CN(C)Cc1ccc(O)c2c1C[C@H]1C[C@H]3[C@H](N(C)C)C(O)=C(C(N)=O)C(=O)[C@@]3(O)C(O)=C1C2=O [AL, (4S,4aS,5aR,12aS)-4-Dimethylamino-7-[(2-ethoxyimino-propyl)-methyl-amino]-methyl-3,10,12,12a-tetrahydroxy-1,11-dioxo-1,4,4a,5,5a,6,11,12a-octahydro-naphthacene-2-carboxylic acid amide]	< 4	4 to 8 (≈ 7.19 to 14.4 µM)	< 4	4 to 8 (≈ 7.19 to 14.4 µM)	4 to 8 (≈ 7.19 to 14.4 µM)	< 4	< 4	< 35	< 35
CCONCc1ccc(O)c2c1C[C@H]1C[C@H]3[C@@H](N(C)C)C(O)=C(C(N)=O)C(=O)[C@@]3(O)C(O)=C1C2=O [AM]	< 4	> 8	4 to 8 (≈ 8.2 to 16.4 µM)	> 8	4 to 8 (≈ 8.2 to 16.4 µM)	< 4	4 to 8 (≈ 8.2 to 16.4 µM)	> 75	> 75
CCO/N=C(/CCN(C)C)c1ccc(O)c2c1C[C@H]1C[C@H]3[C@@H](N(C)C)C(O)=C(C(N)=O)C(=O)[C@@]3(O)C(O)=C1C2=O [AN, (4R,4aS,5aR,12aS)-4-Dimethylamino-7-(3-dimethylamino-1-ethoxyimino-propyl)-3,10,12,12a-tetrahydroxy-1,11-dioxo-1,4,4a,5,5a,6,11,12a-octahydro-naphthacene-2-carboxylic acid amide]	< 4	< 4	< 4	< 4	4 to 8 (≈ 7.19 to 14.4 µM)	< 4	< 4	> 75	> 75
CN(C)[C@@H]1C(O)=C(C(N)=O)C(=O)[C@@]2(O)C(O)=C3C(=O)c4c(O)ccc(CN5CCCCO5)c4C[C@H]3C[C@@H]12 [DR]	< 4	> 8	< 4	4 to 8 (≈ 7.79 to 15.6 µM)	4 to 8 (≈ 7.79 to 15.6 µM)	< 4	< 4	35 to 75 (≈ 68.2 to 146 µM)	35 to 75 (≈ 68.2 to 146 µM)
C/C(=N\OCC(F)(F)F)c1cc(N)c(O)c2c1C[C@H]1C[C@H]3[C@H](N(C)C)C(O)=C(C(N)=O)C(=O)[C@@]3(O)C(O)=C1C2=O [DT, (4S,4aS,5aR,12aS)-9-Amino-4-dimethylamino-3,10,12,12a-tetrahydroxy-1,1,1-dioxo-7-[1-(2,2,2-trifluoro-ethoxyimino)-ethyl]-1,4,4a,5,5a,6,11,12a-octahydro-naphthacene-2-carboxylic acid amide]	< 4	4 to 8 (≈ 7.04 to 14.1 µM)	< 4	4 to 8 (≈ 7.04 to 14.1 µM)	4 to 8 (≈ 7.04 to 14.1 µM)	< 4	< 4	–	–
CN(C)[C@H]1C(O)=C(C(N)=O)C(=O)[C@@]2(O)C(O)=C3C(=O)c4c(O)ccc(CNOCC(F)F)c4C[C@H]3C[C@@H]12 [DY]	< 4	> 8	< 4	> 8	4 to 8 (≈ 7.64 to 15.3 µM)	< 4	4 to 8 (≈ 7.64 to 15.3 µM)	> 75	> 75
CC(=O)c1cccc2c1C[C@H]1C[C@H]3[C@@H](N(C)C)C(O)=C(C(N)=O)C(=O)[C@@]3(O)C(O)=C1C2=O [D]	4 to 8 (≈ 9.08 to 18.2 µM)	> 8	< 4	> 8	> 8	4 to 8 (≈ 9.08 to 18.2 µM)	< 4	> 75	> 75
CN(C)[C@H]1C(O)=C(C(N)=O)C(=O)[C@@]2(O)C(O)=C3C(=O)c4c(O)ccc(CNOCC(F)(F)F)c4C[C@H]3C[C@@H]12 [EA]	< 4	> 8	< 4	> 8	4 to 8 (≈ 7.39 to 14.8 µM)	< 4	4 to 8 (≈ 7.39 to 14.8 µM)	> 75	> 75
CN(C)[C@H]1C(O)=C(C(N)=O)C(=O)[C@@]2(O)C(O)=C3C(=O)c4c(O)ccc(CNOCCF)c4C[C@H]3C[C@@H]12 [EB]	< 4	> 8	< 4	> 8	4 to 8 (≈ 7.91 to 15.8 µM)	< 4	4 to 8 (≈ 7.91 to 15.8 µM)	–	–
CN(C)[C@@H]1C(O)=C(C(N)=O)C(=O)[C@@]2(O)C(O)=C3C(=O)c4c(O)ccc(CN5OCCC5=N)c4C[C@H]3C[C@@H]12 [EC]	–	> 8	< 4	> 8	–	–	< 4	–	–
COC(=O)CONCc1ccc(O)c2c1C[C@H]1C[C@H]3[C@H](N(C)C)C(O)=C(C(N)=O)C(=O)[C@@]3(O)C(O)=C1C2=O [ED]	< 4	4 to 8 (≈ 7.53 to 15.1 µM)	< 4	4 to 8 (≈ 7.53 to 15.1 µM)	< 4	< 4	< 4	< 35	< 35
CC(=O)c1cccc2c1C[C@H]1C[C@H]3[C@H](N(C)C)C(O)=C(C(N)=O)C(=O)[C@@]3(O)C(O)=C1C2=O [E]	< 4	> 8	< 4	4 to 8 (≈ 9.08 to 18.2 µM)	> 8	< 4	< 4	> 75	> 75
